Laboratory results: patent US20260364184A1, “COMPOUND BASED ON OXOISOINDOLINYL-SUBSTITUTED TETRAHYDROPYRIMIDINE-DIONE AND USE THEREOF” (GLUETACS THERAPEUTICS (SHANGHAI) CO., LTD., priority 2023, published 2026)

How the values were obtained:
[1] = system: Human non-small cell lung cancer cell line NCI-H1975; test: Inhibition of H1975 cell proliferation (CellTiter luminescent viability); format: cell-based; conditions: Table ID1, EGFR inhibitor-based; H1975, 96 hours; read-out: Inhibitory activity (IC50, nM) on tumor cell proliferation, H1975
Experimental: The tumor cells used herein were cultured in a cell culture medium listed in table 3 at 37 °C in an incubator with 5% CO2. Prior to experimentation, all cell lines used were correctly identified by STR profiling, and tested negative for mycoplasma contamination using a mycoplasma detection kit through routine screenings.
The IC50 values of the compounds of the present disclosure (including the compounds in Table 1, Table 2, and Examples 1-468) were determined using the CellTiter-Meiluncell Luminescent Cell Viability Assay Kit from Dalian Meilun Biotech Co., Ltd. The detailed procedure is as follows: Tumor cells were seeded in 96-well cell culture plates at the densities specified in Table 4. On the following day, the test compounds of the present disclosure were subjected to serial dilution. The dilution can be performed according to one of the following two methods: • (1) The first dilution method: The test compounds of the present disclosure (including the compounds in Table 1, Table 2, and Examples 1-468) were subjected to 5-fold serial dilutions starting from a highest concentration of 2000 μM, resulting in a total of 9 concentrations from high to low (2000, 400, 80, 16, 3.2, 0.64, 0.128, 0.0256, 0.00512 μM). Subsequently, 0.5 μL of the test compound dilution was transferred into the 96-well plate containing the cells, with each well containing 100 μL of cell culture medium. […] Into the 96-well plate, the diluted test compounds and corresponding detection reagents were added, resulting in final test compound concentrations of 500 nM and 10 nM, respectively. The experimental procedure is described below using the diluted 2 μM test compound as an example.
0.5 μL of the aforementioned diluted compound of the present disclosure (including the compounds in Table 1, Table 2, and Examples 1-468) was added to the seeded cells in 100 μL of medium, yielding a final test compound concentration of 10 nM. After the cells were treated with the compounds of the present disclosure for a specified period, the cell viability assay reagent was added to the culture medium according to the kit's instructions to determine cell viability. […] All controls were treated using the same procedure as the compounds of the present disclosure. The growth inhibition curves for the compounds of the present disclosure were plotted using Prism GraphPad software, and the IC50 values were calculated therefrom.

EGFR = target: T1, EGFR (Homo sapiens, UniProt P00533); test: Western blot degradation of EGFR; format: cell-based; conditions: H1975 Cell; 24 hours
T1 construct: L858R/T790M in cis, heterozygous with wild type), Western blot
T1 sequence (P00533 25-1210): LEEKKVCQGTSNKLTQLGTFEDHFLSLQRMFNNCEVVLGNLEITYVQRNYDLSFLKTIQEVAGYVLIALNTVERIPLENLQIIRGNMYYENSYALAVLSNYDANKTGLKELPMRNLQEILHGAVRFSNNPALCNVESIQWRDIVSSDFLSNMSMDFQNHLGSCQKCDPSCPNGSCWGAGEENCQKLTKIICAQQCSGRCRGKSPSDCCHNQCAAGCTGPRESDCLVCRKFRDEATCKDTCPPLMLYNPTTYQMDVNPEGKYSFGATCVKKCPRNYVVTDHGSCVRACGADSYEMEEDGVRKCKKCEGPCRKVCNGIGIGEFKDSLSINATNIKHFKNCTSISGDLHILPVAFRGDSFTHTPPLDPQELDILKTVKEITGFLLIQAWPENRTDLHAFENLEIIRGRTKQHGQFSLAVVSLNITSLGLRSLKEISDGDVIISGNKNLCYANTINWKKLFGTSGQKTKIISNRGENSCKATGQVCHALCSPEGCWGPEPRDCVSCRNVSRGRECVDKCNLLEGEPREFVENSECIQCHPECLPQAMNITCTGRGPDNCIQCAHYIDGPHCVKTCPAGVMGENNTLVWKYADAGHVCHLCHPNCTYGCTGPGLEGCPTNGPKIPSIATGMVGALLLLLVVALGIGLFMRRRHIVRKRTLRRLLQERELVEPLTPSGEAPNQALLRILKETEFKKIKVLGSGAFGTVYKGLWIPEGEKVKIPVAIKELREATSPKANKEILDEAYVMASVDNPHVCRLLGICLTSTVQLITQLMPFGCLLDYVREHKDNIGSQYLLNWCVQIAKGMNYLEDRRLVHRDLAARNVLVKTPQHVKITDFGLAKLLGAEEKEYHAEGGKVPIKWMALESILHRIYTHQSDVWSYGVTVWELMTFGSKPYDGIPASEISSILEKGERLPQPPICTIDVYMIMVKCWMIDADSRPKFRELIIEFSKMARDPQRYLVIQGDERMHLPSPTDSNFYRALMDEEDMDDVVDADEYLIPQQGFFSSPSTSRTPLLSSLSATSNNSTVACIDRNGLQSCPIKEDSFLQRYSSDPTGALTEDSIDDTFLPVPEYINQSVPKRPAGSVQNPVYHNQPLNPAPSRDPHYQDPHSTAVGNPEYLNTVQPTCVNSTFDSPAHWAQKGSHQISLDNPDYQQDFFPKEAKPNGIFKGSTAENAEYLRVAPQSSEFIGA
T1 sequence (Q96SW2 whole entry partner): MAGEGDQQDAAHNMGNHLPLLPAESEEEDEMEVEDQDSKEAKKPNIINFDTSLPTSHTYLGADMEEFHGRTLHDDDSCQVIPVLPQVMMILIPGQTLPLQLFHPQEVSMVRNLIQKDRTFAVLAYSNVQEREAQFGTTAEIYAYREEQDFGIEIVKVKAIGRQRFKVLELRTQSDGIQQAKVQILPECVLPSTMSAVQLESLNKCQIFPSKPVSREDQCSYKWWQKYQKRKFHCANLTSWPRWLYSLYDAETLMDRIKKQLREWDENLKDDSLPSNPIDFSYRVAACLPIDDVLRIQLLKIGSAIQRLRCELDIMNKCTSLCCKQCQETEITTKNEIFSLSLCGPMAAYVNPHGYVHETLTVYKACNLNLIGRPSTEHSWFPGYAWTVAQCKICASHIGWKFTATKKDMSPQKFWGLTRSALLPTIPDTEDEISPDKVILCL
Experimental: Conventional Western blot assay was performed to evaluate the effects of the compounds of the present disclosure on the expression of target proteins in cells.
(1) Cell Seeding and Protein Harvesting: The selected cells were processed according to the cell seeding procedure and protein harvesting procedure in Table II-2.
(2) To the collected supernatant, 5×SDS sample loading buffer was added, followed by denaturation at 95 °C for 5 minutes. The denatured samples were then separated by SDS-PAGE electrophoresis on a polyacrylamide gel. Proteins were transferred to a nitrocellulose membrane (0.45 μm NC membrane), blocked with blocking buffer at room temperature for 1 hour, and subjected to antibody incubation and development procedures according to the antibody manufacturer's instructions (Cell Signaling Technology).
Half-Maximal Degradation Concentration value (the drug concentration required for degrading proteins by 50%, abbreviated as DC50) reads method: comparing the grayscale values of Western blot bands from drug-treated samples with those from blank DMSO-treated controls, and identifying the drug concentration range at which the grayscale value is half that of the DMSO-treated control bands.
DC50 values can be calculated using ImageJ software to measure grayscale values of Western blot bands from drug-treated samples. The concentration-response curve is fitted to estimate the drug concentration corresponding to half the grayscale value.
Target protein remaining (%) refers to the percentage of target protein remaining in cells after treatment with protein degrader compounds.
Calculation method for target protein remaining (%): Use ImageJ software to measure grayscale values of Western blot bands from drug (protein degrader)-treated samples. The grayscale value of drug-treated bands is divided by that of internal control protein bands, and the resulting quotient is normalized to obtain the relative percentage of remaining target protein after protein degrader treatment.
Target protein degradation rate (%)=1−target protein remaining (%).

[2] = target: T2, human Cereblon WT GST-tagged protein (CRBN) (Homo sapiens, UniProt Q96SW2); test: CRBN binding by HTRF (Cereblon binding kit)
T2 construct: purchased CISBIO 64BDCRBNPEH
T2 sequence (Q96SW2 whole entry): as the sequence (Q96SW2 whole entry partner) above
Summary of the method: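 GST-tagged human Cereblon WT was incubated 3 h at room temperature with compound, thalidomide-Re tracer and Eu anti-GST antibody. Final compound concentrations were 10 to 0.00064 µM (7 points) or 2 and 0.5 µM. Inhibition rate was calculated from HTRF 665/620 nm ratios versus solvent and blank controls.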

SMILES | IC50 [1] | Degradation of substrate protein EGFR (substrate protein remaining %) (EGFR) | Inhibition Rate at 0.5 μM (%) [2] | Inhibition Rate at 2 μM (%) [2]
O=C1CCN(N2C(=O)c3ccc(N4CCC(CN5C[C@H]6C[C@@H]5CN6c5ccc(-c6cc(F)c7c(c6)C(=O)N(C(C(=O)Nc6nccs6)c6ncn8c6CCC8)C7)cc5)CC4)cc3C2=O)C(=O)N1 (stereo partly drawn) [GT-06174, 2-(6,7-dihydro-5H-pyrrolo[1,2-c]imidazol-1-yl)-2-(6-(4-((1R,4R)-5-((1-(2-(2,4-dioxotetrahydropyrimidin-1(2H)-yl)-1,3-dioxoisoindolin-5-yl)piperidin-4-yl)methyl)-2,5-diazabicyclo[2.2.1]heptan-2-yl)phenyl)-4-fluoro-1-oxoisoindolin-2-yl)-N-(thiazol-2-yl)acetamide] | 10 to 50 nM | A (0%≤substrate protein remaining %≤80%) |  | 
O=C1CCN(N2Cc3cc(CN4CCN(C5CCN(c6ccc(-c7cc(F)c8c(c7)C(=O)N(C(C(=O)Nc7nccs7)c7ncn9c7CCC9)C8)cc6)CC5(F)F)CC4)ccc3C2=O)C(=O)N1 (stereo not drawn) [GT-06315, 2-(6,7-dihydro-5H-pyrrolo[1,2-c]imidazol-1-yl)-2-(6-(4-(4-(4-((2-(2,4-dioxotetrahydropyrimidin-1(2H)-yl)-1-oxoisoindolin-5-yl)methyl)piperazin-1-yl)-3,3-difluoropiperidin-1-yl)phenyl)-4-fluoro-1-oxoisoindolin-2-yl)-N-(thiazol-2-yl)acetamide] | < 10 nM | A (0%≤substrate protein remaining %≤80%) |  | 
O=C1CCN(N2C(=O)c3cccc(N4CCC(CN5C[C@H]6C[C@@H]5CN6c5ccc(-c6cc(F)c7c(c6)C(=O)N(C(C(=O)Nc6nccs6)c6ncn8c6CCC8)C7)cc5)CC4)c3C2=O)C(=O)N1 (stereo partly drawn) [GT-06175, 2-(6,7-dihydro-5H-pyrrolo[1,2-c]imidazol-1-yl)-2-(6-(4-((1R,4R)-5-((1-(2-(2,4-dioxotetrahydropyrimidin-1(2H)-yl)-1,3-dioxoisoindolin-4-yl)piperidin-4-yl)methyl)-2,5-diazabicyclo[2.2.1]heptan-2-yl)phenyl)-4-fluoro-1-oxoisoindolin-2-yl)-N-(thiazol-2-yl)acetamide] | 10 to 50 nM | A (0%≤substrate protein remaining %≤80%) |  | 
O=C1CCN(N2C(=O)c3ccc(CN4CCN(C5CCN(c6ccc(-c7cc(F)c8c(c7)C(=O)N(C(C(=O)Nc7nccs7)c7ncn9c7CCC9)C8)cc6)CC5(F)F)CC4)cc3C2=O)C(=O)N1 (stereo not drawn) [GT-06316, 2-(6,7-dihydro-5H-pyrrolo[1,2-c]imidazol-1-yl)-2-(6-(4-(4-(4-((2-(2,4-dioxotetrahydropyrimidin-1(2H)-yl)-1,3-dioxoisoindolin-5-yl)methyl)piperazin-1-yl)-3,3-difluoropiperidin-1-yl)phenyl)-4-fluoro-1-oxoisoindolin-2-yl)-N-(thiazol-2-yl)acetamide] | 50 to 100 nM |  |  | 
O=C1CCN(N2C(=O)c3ccc(N4CCC(CN5CCN(c6ccc(-c7cc(F)c8c(c7)C(=O)N(C(C(=O)Nc7nccs7)c7ncn9c7CCC9)C8)cc6)CC5)CC4)cc3C2=O)C(=O)N1 (stereo not drawn) [GT-06161, 2-(6,7-dihydro-5H-pyrrolo[1,2-c]imidazol-1-yl)-2-(6-(4-(4-((1-(2-(2,4-dioxotetrahydropyrimidin-1(2H)-yl)-1,3-dioxoisoindolin-5-yl)piperidin-4-yl)methyl)piperazin-1-yl)phenyl)-4-fluoro-1-oxoisoindolin-2-yl)-N-(thiazol-2-yl)acetamide] | 10 to 50 nM | A (0%≤substrate protein remaining %≤80%) |  | 
O=C1CCN(N2C(=O)c3ccc(CN4CCN(C5CCN(c6ccc(-c7cc(F)c8c(c7)C(=O)N(C(C(=O)Nc7nccs7)c7ncn9c7CCC9)C8)cc6)CC5)CC4)cc3C2=O)C(=O)N1 (stereo not drawn) [GT-06242, 2-(6,7-dihydro-5H-pyrrolo[1,2-c]imidazol-1-yl)-2-(6-(4-(4-(4-((2-(2,4-dioxotetrahydropyrimidin-1(2H)-yl)-1,3-dioxoisoindolin-5-yl)methyl)piperazin-1-yl)piperidin-1-yl)phenyl)-4-fluoro-1-oxoisoindolin-2-yl)-N-(thiazol-2-yl)acetamide] | 50 to 100 nM |  |  | 

Second part, the molecule after the results:

IC50 [1] | Degradation of substrate protein EGFR (substrate protein remaining %) (EGFR) | Inhibition Rate at 0.5 μM (%) [2] | Inhibition Rate at 2 μM (%) [2] | SMILES
10 to 50 nM |  | a1 (10% < a1 ≤ 20%) | a5 (53% < a5 ≤ 60%) | O=C1CCN(N2Cc3cc(CN4CCC(N5CCN(c6ccc(-c7cc(F)c8c(c7)C(=O)N(C(C(=O)Nc7nccs7)c7ncn9c7CCC9)C8)cc6)CC5)CC4)ccc3C2=O)C(=O)N1 (stereo not drawn) [GT-06324, 2-(6,7-dihydro-5H-pyrrolo[1,2-c]imidazol-1-yl)-2-(6-(4-(4-(1-((2-(2,4-dioxotetrahydropyrimidin-1(2H)-yl)-1-oxoisoindolin-5-yl)methyl)piperidin-4-yl)piperazin-1-yl)phenyl)-4-fluoro-1-oxoisoindolin-2-yl)-N-(thiazol-2-yl)acetamide]
100 to 130 nM | A (0%≤substrate protein remaining %≤80%) | a2 (20% < a2 ≤ 30%) | a5 (53% < a5 ≤ 60%) | O=C1CCN(N2Cc3cc(CN4C[C@@H]5C[C@H]4CN5c4ccc(-c5cc(F)c6c(c5)C(=O)N(C(C(=O)Nc5nccs5)c5ncn7c5CCC7)C6)cc4)ccc3C2=O)C(=O)N1 (stereo partly drawn) [GT-05114, 2-(6,7-dihydro-5H-pyrrolo[1,2-c]imidazol-1-yl)-2-(6-(4-((1S,4S)-5-((2-(2,4-dioxotetrahydropyrimidin-1(2H)-yl)-1-oxoisoindolin-5-yl)methyl)-2,5-diazabicyclo[2.2.1]heptan-2-yl)phenyl)-4-fluoro-1-oxoisoindolin-2-yl)-N-(thiazol-2-yl)acetamide]
< 10 nM |  |  |  | O=C1CCN(N2Cc3cc(CN4C5CCC4CN(c4ccc(-c6cc(F)c7c(c6)C(=O)N(C(C(=O)Nc6nccs6)c6ncn8c6CCC8)C7)cc4)C5)ccc3C2=O)C(=O)N1 (stereo not drawn) [GT-06250, 2-(6,7-dihydro-5H-pyrrolo[1,2-c]imidazol-1-yl)-2-(6-(4-(8-((2-(2,4-dioxotetrahydropyrimidin-1(2H)-yl)-1-oxoisoindolin-5-yl)methyl)-3,8-diazabicyclo[3.2.1]octan-3-yl)phenyl)-4-fluoro-1-oxoisoindolin-2-yl)-N-(thiazol-2-yl)acetamide]
100 to 130 nM |  |  |  | O=C1CCN(N2C(=O)c3ccc(CN4C5CCC4CN(c4ccc(-c6cc(F)c7c(c6)C(=O)N(C(C(=O)Nc6nccs6)c6ncn8c6CCC8)C7)cc4)C5)cc3C2=O)C(=O)N1 (stereo not drawn) [GT-06251, 2-(6,7-dihydro-5H-pyrrolo[1,2-c]imidazol-1-yl)-2-(6-(4-(8-((2-(2,4-dioxotetrahydropyrimidin-1(2H)-yl)-1,3-dioxoisoindolin-5-yl)methyl)-3,8-diazabicyclo[3.2.1]octan-3-yl)phenyl)-4-fluoro-1-oxoisoindolin-2-yl)-N-(thiazol-2-yl)acetamide]
< 10 nM | A (0%≤substrate protein remaining %≤80%) |  |  | O=C1CCN(N2Cc3cc(CN4CCN(c5ccc(-c6cc(F)c7c(c6)C(=O)N(C(C(=O)Nc6nccs6)c6ncn8c6CCC8)C7)cc5)CC4)ccc3C2=O)C(=O)N1 (stereo not drawn) [GT-06159, 2-(6,7-dihydro-5H-pyrrolo[1,2-c]imidazol-1-yl)-2-(6-(4-(4-((2-(2,4-dioxotetrahydropyrimidin-1(2H)-yl)-1-oxoisoindolin-5-yl)methyl)piperazin-1-yl)phenyl)-4-fluoro-1-oxoisoindolin-2-yl)-N-(thiazol-2-yl)acetamide]
